Measured values from ChEMBL document CHEMBL1143633, “Synthesis and cytotoxic evaluation of combretafurazans” (J Med Chem, 2005).

These molecules were tested on SH-SY5Y (assay: Cytotoxicity against SH-SY5Y human neuroblastoma cell line was determined).
Assay type: functional, cell-based

SMILES | IC50
COc1ccc(-c2nonc2-c2cc(OC)c(OC)c(OC)c2)cc1[N+](=O)[O-] | 72.5 nM
COc1ccc(C(=O)C(=O)c2cc(OC)c(OC)c(OC)c2)cc1O | 524 nM
COc1ccc(-c2nonc2-c2cc(OC)c(OC)c(OC)c2)cc1O | 1.4 nM
COc1ccc(-c2nonc2-c2cc(OC)c(OC)c(OC)c2)cc1N | 1.6 nM
COc1ccc(-c2nonc2-c2cc(OC)c(O)c(OC)c2)cc1O | 17.5 nM
COc1ccc(-c2nonc2-c2cc(OC)c(OC)c(OC)c2)cc1 | 8.9 nM
COc1ccc(-c2nonc2-c2cc(OC)c(O)c(OC)c2)cc1 | 196 nM
COc1ccc(C(=N/O)/C(=N\O)c2cc(OC)c(OC)c(OC)c2)cc1O | 254 nM
COc1ccc(/C=C\c2cc(OC)c(OC)c(OC)c2)cc1O [COMBRETASTATIN A4] | 5.8 nM
